Entries after “also recorded” stand apart in the source; their conditions may differ.
What was measured:
Type in all cases: cell-based
[1] = test system: mitochondria in HeLa cells; assay: Time-course live-cell confocal imaging of stained HeLa cells (photostability, localisation, phototoxicity); settings: 50 nM for 60 mins; for (photo)-toxicity during prolonged imaging / localisation at mitochondria over time / photostability / signal over time: live imaging every 5 seconds for 240 frames
Description: Within this time frame, COMPOUND 1 intensity drops by ˜25% during the imaging period compared to the comparator which drops by 65%.
Data from two samples of COMPOUND 3,measured at different timepoints is overlaid in the graph (right).
(§1) Mitochondrial stains were diluted to working concentrations from 10 mM DMSO stock solutions into DMEM containing 10% FCS and 25 mM HEPES. Solutions were incubated with HeLa cells at 37° C. in a humidified 5% CO2 incubator for the indicated period of time prior to imaging, typically without a washout step (though a washout step can be performed). A Nikon A1R TiE confocal laser scanning microscope equipped with environmental chamber (37° C.) was used for live-cell imaging, employing 561 nm and 640 nm diode laser lines, a Nikon A1R Plan APO VC 60x Oil lens (NA 1.4), pinhole at 1AU. The images were acquired using NIS Elements software and processed using ImageJ.

[2] = test system: mitochondria in HeLa cells; assay: Mitochondrial localisation and membrane-potential dependence in HeLa cells (oligomycin / CCCP treatment, confocal imaging)
Description: as §1

HeLa cells = assay: Optimization of stain concentration for imaging HeLa cells; settings: 50 nM, 60 mins, no washout, same laser power/settings
Description: HeLa cells were incubated with the comparator or COMPOUND 1 for 60 mins at indicated doses and imaged at the same laser power/settings. NOTE: no washout step to remove unbound comparator was performed (manufacturer recommends this) to enable direct comparison with COMPOUND 1. Some toxicity is observed with 100 nM of comparator.
as §1

SMILES	(photo)-toxicity during prolonged imaging [1]	localisation at mitochondria over time [1]	photostability / signal over time [1]	effect of de-polarizing the mitochondrial membrane with CCCP on stain ([2]; HeLa cells, 50 nM stain for 60 mins, then CCCP 10 μM up to 60 minutes)	effect of hyper-polarizing the mitochondrial membrane with oligomycin on stain ([2]; HeLa cells, 50 nM stain for 60 mins, then Oligomycin 5 μg/mL up to 60 minutes)	localisation of stain ([2]; mitochondrial stain, due to charge potential across the mitochondrial membrane)	drop of normalized intensity during the imaging period ([1]; live imaging every 5 seconds for 240 frames (20 minutes), 100% = maximum intensity peak)	imaging result (HeLa cells)
c1ccc(-c2c3ccc(=[N+]4CCC4)cc-3oc3cc(N4CCC4)ccc23)cc1 [COMPOUND 4, 1-(6-(azetidin-1-yl)-9-phenyl-3H-xanthen-3-ylidene)azetidin-1-ium chloride]	no observable phototoxicity effects	remain faithfully localized to mitochondria over the entire imaging period	higher signal retention over time than COMPOUND 3	–	–	–	–	–
Cc1ccccc1-c1c2ccc(=[N+]3CCC3)cc-2oc2cc(N3CCC3)ccc12 [COMPOUND 3, 1-(6-(azetidin-1-yl)-9-(o-tolyl)-3H-xanthen-3-ylidene)azetidin-1-ium]	–	higher non-specific cytoplasmic background (and lower mitochondrial labelling)	retention of signal during the first 10 mins of imaging, but then the signal rapidly drops	–	–	–	–	–
C[Si]1(C)C2=CC(=[N+]3CCC3)C=CC2=C(c2ccccc2)c2ccc(N3CCC3)cc21 [COMPOUND 1, 1-(7-(azetidin-1-yl)-5,5-dimethyl-10-phenyldibenzo[b,e]silin-3 (5H)-ylidene)azetidin-1-ium chloride]	no apparent toxicity	remains clearly localized at the mitochondria; also recorded: appears to mark the mitochondria more clearly than COMPOUND 2 over time	–	dispersion	accumulation	localizes specifically to the mitochondria	~25%	excellent results

Reference: US20240385087A1, “METHOD FOR STAINING MITOCHONDRIA” (TOCRIS COOKSON LIMITED, priority 2021, published 2024)
